Values of other authors, collected in US20070254026A1, “SOFTGEL CAPSULES” (FORBES MEDI-TECH INC., priority 2006, published 2007).

Test system: benign prostate hypertrophy
Conditions: Berges.2000; Coleman.2002

CC[C@H](CC[C@@H](C)[C@H]1CC[C@H]2[C@@H]3CC=C4C[C@@H](O)CC[C@]4(C)[C@H]3CC[C@]12C)C(C)C [sitosterol, β-sitosterol]
effective dose reducing symptoms of benign prostate hypertrophy: 20 to 60 mg per day
